{
  "source": "BindingDB's records for doi:10.1016/0960-894X(96)00081-9",
  "about": "(1996)",
  "key": {"[1]": {"biological_target": "T1, Alpha-1A/Alpha-1B/Alpha-1D adrenergic receptor (Rattus norvegicus, UniProt P15823+P43140+P23944)", "T1 sequence (P15823 whole entry)": "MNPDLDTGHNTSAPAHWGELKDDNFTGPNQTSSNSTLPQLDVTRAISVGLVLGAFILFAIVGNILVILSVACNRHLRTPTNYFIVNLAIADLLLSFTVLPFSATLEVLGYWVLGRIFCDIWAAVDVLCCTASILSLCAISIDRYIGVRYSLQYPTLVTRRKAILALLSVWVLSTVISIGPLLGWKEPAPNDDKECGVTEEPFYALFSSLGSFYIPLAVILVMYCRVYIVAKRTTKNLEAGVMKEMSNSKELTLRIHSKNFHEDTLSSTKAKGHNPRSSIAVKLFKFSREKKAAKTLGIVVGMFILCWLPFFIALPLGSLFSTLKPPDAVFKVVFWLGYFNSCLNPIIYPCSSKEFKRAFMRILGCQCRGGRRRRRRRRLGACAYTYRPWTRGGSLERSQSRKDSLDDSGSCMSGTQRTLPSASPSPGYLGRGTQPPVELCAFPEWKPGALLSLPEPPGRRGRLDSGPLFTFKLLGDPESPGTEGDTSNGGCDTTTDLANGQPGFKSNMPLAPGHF", "T1 sequence (P43140 whole entry)": "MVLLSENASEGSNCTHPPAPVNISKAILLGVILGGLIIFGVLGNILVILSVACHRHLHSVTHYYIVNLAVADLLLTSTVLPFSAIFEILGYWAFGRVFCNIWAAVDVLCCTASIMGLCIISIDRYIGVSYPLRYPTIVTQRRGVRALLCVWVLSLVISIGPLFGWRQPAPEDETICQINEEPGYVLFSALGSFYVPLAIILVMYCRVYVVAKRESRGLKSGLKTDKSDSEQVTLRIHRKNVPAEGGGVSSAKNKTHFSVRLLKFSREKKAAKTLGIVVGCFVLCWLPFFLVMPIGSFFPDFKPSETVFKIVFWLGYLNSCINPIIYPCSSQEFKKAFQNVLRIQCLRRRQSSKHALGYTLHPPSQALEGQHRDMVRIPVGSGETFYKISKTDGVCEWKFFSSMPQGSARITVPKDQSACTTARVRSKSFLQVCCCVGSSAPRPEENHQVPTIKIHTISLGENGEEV", "T1 sequence (P23944 whole entry)": "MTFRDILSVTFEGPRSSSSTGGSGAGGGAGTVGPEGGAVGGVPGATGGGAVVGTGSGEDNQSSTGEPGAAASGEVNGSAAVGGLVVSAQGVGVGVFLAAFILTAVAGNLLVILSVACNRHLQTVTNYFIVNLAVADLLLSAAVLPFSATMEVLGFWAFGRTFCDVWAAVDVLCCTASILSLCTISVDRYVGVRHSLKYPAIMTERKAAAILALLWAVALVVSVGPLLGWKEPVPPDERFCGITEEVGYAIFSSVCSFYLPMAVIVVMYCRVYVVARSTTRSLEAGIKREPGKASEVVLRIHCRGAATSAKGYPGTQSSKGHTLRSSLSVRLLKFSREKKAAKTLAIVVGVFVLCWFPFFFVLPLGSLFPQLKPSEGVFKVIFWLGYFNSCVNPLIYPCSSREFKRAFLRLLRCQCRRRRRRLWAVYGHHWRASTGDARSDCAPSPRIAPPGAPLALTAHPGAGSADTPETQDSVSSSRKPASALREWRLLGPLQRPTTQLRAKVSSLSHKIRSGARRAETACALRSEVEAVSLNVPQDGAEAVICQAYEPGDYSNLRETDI", "assay": "Binding affinity at Alpha-1 adrenergic receptor in rat cerebral cortex membranes by [3H]prazosin displacement."}, "[2]": {"biological_target": "T2, 5-hydroxytryptamine receptor 1A (Rattus norvegicus, UniProt P19327)", "T2 sequence (P19327 whole entry)": "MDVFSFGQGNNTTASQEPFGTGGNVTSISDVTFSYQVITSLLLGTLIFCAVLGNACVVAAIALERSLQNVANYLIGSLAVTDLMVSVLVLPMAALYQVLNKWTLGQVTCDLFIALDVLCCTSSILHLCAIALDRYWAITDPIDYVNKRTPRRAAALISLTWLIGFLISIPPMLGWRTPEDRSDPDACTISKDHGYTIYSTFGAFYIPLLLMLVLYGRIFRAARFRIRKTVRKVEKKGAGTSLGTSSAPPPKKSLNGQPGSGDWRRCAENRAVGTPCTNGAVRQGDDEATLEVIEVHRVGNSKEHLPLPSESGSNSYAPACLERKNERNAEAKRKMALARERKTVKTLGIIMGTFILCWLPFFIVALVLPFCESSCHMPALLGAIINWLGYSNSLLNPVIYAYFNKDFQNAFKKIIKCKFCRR", "assay": "ChEBML_841", "protocol": "Compound was evaluated for its ability to displace [3H]8-OH-DPAT from serotonin 5-hydroxytryptamine 1A receptor in rat cerebral cortex membranes"}},
  "data": [
    {"smiles": "COc1ccccc1N1CCN(Cn2c(O)c3n(c2=O)CCCC3)CC1", "note": "[2-[4-(2-Methoxy-phenyl)-piperazin-1-ylmethyl]-tetrahydro-imidazo[1,5-a]pyridine-1,3-dione]", "values": [
      {"measurement": "Ki", "setting": "[1]", "result": "> 1000", "unit": "nM"}
    ]},
    {"smiles": "O=c1n(CCCCN2CCN(c3ccccc3)CC2)c(O)c2n1CCCC2", "note": "[2-[4-(4-Phenyl-piperazin-1-yl)-butyl]-tetrahydro-imidazo[1,5-a]pyridine-1,3-dione]", "values": [
      {"measurement": "Ki", "setting": "[1]", "result": 19, "unit": "nM"}
    ]},
    {"smiles": "O=c1n(CCCN2CCN(c3cccc(Cl)c3)CC2)c(O)c2n1CCCC2", "note": "[2-{3-[4-(3-Chloro-phenyl)-piperazin-1-yl]-propyl}-tetrahydro-imidazo[1,5-a]pyridine-1,3-dione]", "values": [
      {"measurement": "Ki", "setting": "[1]", "result": 18, "unit": "nM"},
      {"measurement": "Ki", "setting": "[2]", "result": 54, "unit": "nM"}
    ]}
  ]
}
